{"source": "patent US20070048250A1", "about": "“Methods of treating concomitant constipation in a cancer treatment regimen including imexon” (AmpliMed Corporation, priority 2005, published 2007)", "test_system": "gastrointestinal transit of a charcoal meal", "assay": "GLP study, gastrointestinal transit of a charcoal meal in rats", "format": "in vivo", "conditions": "intravenous, 100 mg/kg", "text": "Following the unexpected identification of constipation toxicities in patients being treated with imexon in a cancer treatment regimen, a GLP (good laboratory practices) study was undertaken to evaluate the effects of imexon on the gastrointestinal transit of a charcoal meal in rats.", "data": [{"smiles": "N=C1NC(=O)N2CC12", "note": "(centres unmarked) [imexon, 4-imino-1,3-diazabicyclo[3.1.0]-hexan-2-one]", "values": [{"measurement": "effect on gastric emptying", "result": "reduction in gastric emptying"}, {"measurement": "effect on gastrointestinal transit", "result": "statistically significant inhibition of gastrointestinal transit"}]}]}
